Series [1] has as its target T1, aryl hydrocarbon receptor (AhR) (Mus musculus, UniProt P30561).
T1 construct: Mouse and human MSCs were obtained from C57BL/6 mice and healthy donor BM respectively; endogenous in cells; host or cells: primary mouse MSCs from C57BL/6 mice
T1 sequence (P30561 10-805 limits assumed): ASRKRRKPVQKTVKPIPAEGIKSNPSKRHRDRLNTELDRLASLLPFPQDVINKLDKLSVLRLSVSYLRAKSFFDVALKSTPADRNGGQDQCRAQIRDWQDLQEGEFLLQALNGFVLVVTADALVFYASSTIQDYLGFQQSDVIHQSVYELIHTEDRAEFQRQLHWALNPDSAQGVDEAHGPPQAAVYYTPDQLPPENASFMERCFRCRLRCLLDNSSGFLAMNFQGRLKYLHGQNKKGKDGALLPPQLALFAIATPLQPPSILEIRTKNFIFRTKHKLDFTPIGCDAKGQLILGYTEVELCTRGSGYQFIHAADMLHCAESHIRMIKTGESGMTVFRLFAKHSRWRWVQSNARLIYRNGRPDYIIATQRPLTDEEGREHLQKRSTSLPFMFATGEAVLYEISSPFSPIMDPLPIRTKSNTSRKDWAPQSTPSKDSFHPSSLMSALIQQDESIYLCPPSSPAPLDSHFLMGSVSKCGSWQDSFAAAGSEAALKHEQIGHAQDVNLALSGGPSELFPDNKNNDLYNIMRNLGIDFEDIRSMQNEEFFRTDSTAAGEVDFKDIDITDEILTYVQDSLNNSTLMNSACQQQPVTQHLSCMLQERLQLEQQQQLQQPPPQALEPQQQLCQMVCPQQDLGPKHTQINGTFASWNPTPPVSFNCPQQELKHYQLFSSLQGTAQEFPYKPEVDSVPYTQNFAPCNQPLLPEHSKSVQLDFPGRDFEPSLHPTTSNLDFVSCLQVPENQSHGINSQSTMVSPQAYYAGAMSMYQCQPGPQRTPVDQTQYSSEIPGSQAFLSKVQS
The series is described as follows: AhR activation in mouse MSCs (qPCR of AhR dependent genes Cyp1a1, Cyp1b1). Type of series: cell-based. Here is the method:
(§1) RNA extraction and PCR analysis. Total cellular RNA was extracted using RNeasy® Mini Kit columns (QIAGEN) according to the manufacturer's protocols. 1 μg of total RNA was used to synthesize cDNA using High-Capacity cDNA kit (Applied Biosystems) following the supplier's instructions. Detection of transcript levels of iNOS, IDO, COX2, IL-6, CYP1a1 and CYP1b1, were performed using the TaqMan Gene Expression Assay Kit (Applied Biosystems), using HPRT-1 as a reference. All primers were purchased from Applied Biosystems. Real-Time PCR reactions were conducted using StepOne Plus (Applied Biosystems). Data was analyzed by StepOne Software version 2.2 (Applied Biosystems).
(§2) To evaluate whether kynurenine activates AhR in mMSCs, the mRNA of treated/non-treated MSCs were tested for the expression level of two AhR dependent genes, Cyp1a1 and Cyp1b1. […] To ascertain that the up-regulation of these genes is AhR dependent, MSCs were treated with kynurenine for 24 hours in the presence/absence of the AhR antagonist CH-223191. The up-regulation of Cyp1a1 by kynurenine is inhibited in the presence of the antagonist both in mouse and human MSCs (previous FIGS. 9B, C).

Series [2] relates to mMSCs. The series is described as follows: qPCR expression analysis in treated mouse MSCs. The conditions noted are these: for IL-6 mRNA expression: combination treatments, with/without 10 μM CH-223191; for COX2 mRNA expression: qPCR, combinations of TGFβ, IFNγ, kynurenine. It is filed as cell-based. Here is the method: MSCs isolation and culture. Mouse MSCs (mMSCs) were obtained from the bone marrow (BM) of C57BL/6 mice. BM cells were cultured at a concentration of 1*10^6 cells/ml in Mesencult basal medium supplemented with MSC stimulatory supplements (StemCell Technologies, Vancouver, BC), at 37° C. with 10% CO2. After 2-3 passages, the cells were harvested and CD11b^+ cells were depleted by EasySep® cell separation kit (StemCell Technologies, Vancouver, BC). Cells from 3 different lines were used for experiments after 5-20 passages.
(§3) TCT MSCs were treated with 40pM hTGFβ (PeproTech, Israel) for 24 h, and then with a cocktail of 40 pM hTGFβ, 100 ng/ml h/mIFNγ (PeproTech, Israel) and 150 μM Kynurenine (Sigma, Switzerland) for an additional 24 h before they were used for experiments.
RNA extraction and PCR analysis. Total cellular RNA was extracted using RNeasy® Mini Kit columns (QIAGEN) according to the manufacturer's protocols. 1 μg of total RNA was used to synthesize cDNA using High-Capacity cDNA kit (Applied Biosystems) following the supplier's instructions. Detection of transcript levels of iNOS, IDO, COX2, IL-6, CYP1a1 and CYP1b1, were performed using the TaqMan Gene Expression Assay Kit (Applied Biosystems), using HPRT-1 as a reference. All primers were purchased from Applied Biosystems. Real-Time PCR reactions were conducted using StepOne Plus (Applied Biosystems). Data was analyzed by StepOne Software version 2.2 (Applied Biosystems). […]

In series [3] the test system is hMSCs. The series is described as follows: qPCR expression analysis in treated human MSCs. It is filed as cell-based. Particulars: for upregulation of COX2 by kynurenine: human MSCs, presence or absence of 10 μM CH-223191. On the procedure: Human MSCs (hMSCs). Bone marrow for hMHC was obtained from 17 adult healthy donors, males and females, following informed consent and under institutional Helsinki approval; hMSCs were cultured as previously described and the cells were used for experiments after 3-6 passages (Resnick, Barkats et al. 2013). TCT MSCs were treated with 40pM hTGFβ (PeproTech, Israel) for 24 h, and then with a cocktail of 40 pM hTGFβ, 100 ng/ml h/mIFNγ (PeproTech, Israel) and 150 μM Kynurenine (Sigma, Switzerland) for an additional 24 h before they were used for experiments. RNA extraction and PCR analysis. Total cellular RNA was extracted using RNeasy® Mini Kit columns (QIAGEN) according to the manufacturer's protocols. 1 μg of total RNA was used to synthesize cDNA using High-Capacity cDNA kit (Applied Biosystems) following the supplier's instructions. Detection of transcript levels of iNOS, IDO, COX2, IL-6, CYP1a1 and CYP1b1, were performed using the TaqMan Gene Expression Assay Kit (Applied Biosystems), using HPRT-1 as a reference. All primers were purchased from Applied Biosystems. Real-Time PCR reactions were conducted using StepOne Plus (Applied Biosystems). Data was analyzed by StepOne Software version 2.2 (Applied Biosystems).
(Quantitative PCR measures a nucleic acid by following its amplification.)

For series [4], the target named is T2, aryl hydrocarbon receptor (AhR) (Homo sapiens, UniProt P35869).
T2 construct: Mouse and human MSCs were obtained from C57BL/6 mice and healthy donor BM respectively; endogenous in cells; host or cells: primary human MSCs from healthy donor bone marrow
T2 sequence (P35869 11-848): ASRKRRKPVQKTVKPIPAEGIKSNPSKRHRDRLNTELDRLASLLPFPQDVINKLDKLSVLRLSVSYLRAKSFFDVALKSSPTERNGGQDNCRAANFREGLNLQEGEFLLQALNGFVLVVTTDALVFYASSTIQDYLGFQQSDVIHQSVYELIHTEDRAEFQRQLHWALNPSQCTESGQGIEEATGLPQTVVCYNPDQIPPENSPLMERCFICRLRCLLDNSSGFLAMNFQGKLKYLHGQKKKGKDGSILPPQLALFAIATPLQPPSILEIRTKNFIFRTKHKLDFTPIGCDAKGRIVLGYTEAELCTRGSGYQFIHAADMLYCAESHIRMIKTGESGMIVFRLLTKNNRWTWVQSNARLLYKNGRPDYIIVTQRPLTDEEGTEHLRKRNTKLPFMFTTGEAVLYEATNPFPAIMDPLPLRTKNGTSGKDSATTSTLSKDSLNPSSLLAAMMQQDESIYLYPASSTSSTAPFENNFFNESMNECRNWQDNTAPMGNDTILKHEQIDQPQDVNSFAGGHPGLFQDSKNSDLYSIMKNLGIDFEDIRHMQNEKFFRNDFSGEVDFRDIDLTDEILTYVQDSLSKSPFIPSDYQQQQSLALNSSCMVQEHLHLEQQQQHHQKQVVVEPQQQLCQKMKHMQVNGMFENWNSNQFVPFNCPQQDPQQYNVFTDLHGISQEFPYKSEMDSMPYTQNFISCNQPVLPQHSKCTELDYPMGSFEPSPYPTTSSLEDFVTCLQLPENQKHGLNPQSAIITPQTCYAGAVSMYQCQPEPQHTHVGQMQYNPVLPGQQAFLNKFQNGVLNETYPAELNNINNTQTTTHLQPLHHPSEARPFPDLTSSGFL
Put plainly: AhR activation in human MSCs (qPCR of AhR dependent gene Cyp1a1). Type of series: cell-based. On the procedure:
as §1, §2

For series [5], the system named is mMSCs. The series is described as follows: FACS analysis of surface expression on mouse MSCs. Particulars: for EGFR surface expression: kynurenine 5 hours, with/without 10 μM CH-223191 pre-treatment 16 hours; for MHC I expression: FACS. Type of series: cell-based. Here is the method: as §3
(§4) FACS analysis. The phenotype of the MSCs was analyzed by FACS using anti-CD29-PB and anti-hCD45-FITC (Biolegend), anti-CD11b-APC, anti-CD44-PE and anti-mCD45-FITC (SouthernBiotech), anti-CD105-PB, anti-CD73-PE, anti-CD90-PE and anti-Sca1-PE (eBioscience), anti-CD44-V450, anti-CD105-APC, anti-HLA DR-APC and anti-HLA ABC-PE (BD Bioscience) antibodies. The expression level of PD-L1 in mMSCs was analyzed by FACS with anti-B7-H1-PE (PD-L1) (eBioscience). To analyze EGFR internalization in kynurenine treated mMSCs, mMSCs were cultured in the presence of 10 μM CH223191 (Merck-Millipore) for 16 hours and then kynurenine was added for an additional 5 hours. EGFR expression was analyzed by FACS using anti-EGFR-PE (Bioss). FACS was performed using the aMACSQuant analyzer (Miltenyi Biotech, Germany) and the data was analyzed using FCS Express V3 software.
On the technique in general: A flow cytometer gives signals particle by particle.

Series [6] deals with mMSCs. The series is described as follows: ELISA on supernatants of treated mMSCs. Type of series: cell-based, mouse. On the procedure:
ELISA. Quantification of PGE2 in supernatants collected from treated mMSCs and from co-cultures with splenocytes after 72 hours of culture, was performed by competitive enzyme-linked immunosorbent assay (ELISA) technique using a commercially available ELISA kit (R&D Systems, Minn., USA). IL-6, IL-17A and IFNγ in supernatants collected from treated mMSCs and/or from co-cultures with splenocytes/PBMCs were quantified using the ELISA Ready SET Go kits (eBioscience, San Diego, Calif., USA), according to the manufacturer's instructions. All determinations were made in triplicates.
Background: An ELISA detects its analyte on a solid surface through an enzyme-linked reagent.

For series [7], the system named is hMSCs. The series is described as follows: FACS analysis of surface expression on human MSCs. Type of series: cell-based. The conditions noted are these: IFNγ induced. On the procedure: as §3, §4
Setting [8] is: kynurenine 24 hours, 10 μM CH-223191.
Setting [9] is: mouse MSCs, presence or absence of 10 μM CH-223191.
Setting [10] is: murine MSCs, kynurenine alone vs non-treated.

On to `Cc1ccccc1N=Nc1ccc(NC(=O)c2ccnn2C)c(C)c1` [CH-223191], for which the “up-regulation of Cyp1a1 by kynurenine in presence of antagonist” value in series [1] (setting [8]) and in series [4] (setting [8]) was “inhibited” in each case. In addition, in the series on mMSCs [2] (mMSCs), the “IL-6 mRNA expression” value is “partially reversed the effects of kynurenine”. Moreover, the “enhanced expression of LIF” value in the series with mMSCs [2] (setting [9]) is recorded as “reversed”. The “upregulation of COX2 by kynurenine” value in the series on mMSCs [2] (setting [9]) and in the series on hMSCs [3] was “reversed” in each case. For the same compound, the EGFR surface expression entry in the series on mMSCs [5] is reported as “restored EGFR expression on the cell surface”.

For the compound `Nc1ccccc1C(=O)CC(N)C(=O)O` (stereo not shown) [kynurenine], the AhR activation result in series [1] is “activates”. For the same compound, in the series with mMSCs [2] (mMSCs), the “IL-6 mRNA expression” value is given as “restricted this elevation” and the “COX2 mRNA expression” value is reported as “significant additive effects on the up-regulation”. For the same compound, the “HO-1 mRNA expression” value in the series with mMSCs [2] (mMSCs, kynurenine added to the DCT) is reported as “significantly up-regulated”. Besides, in the series on mMSCs [2] (setting [9]), the “upregulation of COX2 by kynurenine” value is “AhR dependent”. In the series with mMSCs [2] (setting [10]), the COX2 expression result is listed as “no effect”, the IDO expression entry is given as “no effect”, the IL6 expression entry is given as “no effect” and the iNOS expression result was “no effect”. Also, the “COX2 mRNA expression” value in the series with hMSCs [3] (hMSCs, addition of kynurenine) is “significantly elevated”. Further, the “upregulation of COX2 by kynurenine” value with hMSCs [3] is on record as “AhR dependent”. Further, the AhR activation result in series [4] was “activates”. Further, the EGFR surface expression result in the series with mMSCs [5] is listed as “significantly reduced”. Also, the IL-6 secretion result in the series on mMSCs [6] (mMSCs culture medium) is “restricted this elevation”.

Take TGFβ: the “COX2 mRNA expression” value with mMSCs [2] (mMSCs) is listed as “increased”. Also, in the series with hMSCs [7], the “MHC I expression” value was “reduced the IFNγ induced expression” and the “MHC II expression” value was “reduced the IFNγ induced expression”. In the series on mMSCs [5], the “MHC I expression” value was “reduced the elevated expression”.

As to IFNγ, the “COX2 mRNA expression” value with mMSCs [2] (mMSCs) is “no effect”. Besides, the “MHC I expression” value in the series with mMSCs [5] is “induces up-regulation”. Moreover, the PGE2 secretion entry with mMSCs [6] (mMSCs supernatants) is on record as “no effect”.

For the origin of these results see patent US20170246210A1, “EX-VIVO INDUCED REGULATORY MESENCHYMAL STEM CELLS OR MYELOID-DERIVED SUPPRESSOR CELLS AS IMMUNE MODULATORS” (HADASIT MEDICAL RESEARCH SERVICES & DEVELOPMENT LTD, priority 2014, published 2017).
